# Results reported in ChEMBL document CHEMBL4265887 (Bioorg Med Chem Lett, 2018).
# The source made the active and inactive calls. The calls are words filed in the database; no cut-off is given here.
# Experiments:
# HCT-116 [1] = assay: Cytotoxicity against human HCT116 cells assessed as reduction in cell viability after 48 hrs by MTT assay; type: functional, cell-based; settings: HCT-116, 48 h
# HCT-15 = assay: Cytotoxicity against human HCT15 cells assessed as reduction in cell viability after 48 hrs by MTT assay; type: functional, cell-based; settings: HCT-15, 48 h
# Aurora kinase A = target: T1, Aurora kinase A (Homo sapiens, UniProt O14965); assay: Inhibition of recombinant Aurora A (unknown origin) using TAMRA-PKAtide as substrate after 30 mins by fluorescence polarization assay
# T1 sequence (O14965 whole entry): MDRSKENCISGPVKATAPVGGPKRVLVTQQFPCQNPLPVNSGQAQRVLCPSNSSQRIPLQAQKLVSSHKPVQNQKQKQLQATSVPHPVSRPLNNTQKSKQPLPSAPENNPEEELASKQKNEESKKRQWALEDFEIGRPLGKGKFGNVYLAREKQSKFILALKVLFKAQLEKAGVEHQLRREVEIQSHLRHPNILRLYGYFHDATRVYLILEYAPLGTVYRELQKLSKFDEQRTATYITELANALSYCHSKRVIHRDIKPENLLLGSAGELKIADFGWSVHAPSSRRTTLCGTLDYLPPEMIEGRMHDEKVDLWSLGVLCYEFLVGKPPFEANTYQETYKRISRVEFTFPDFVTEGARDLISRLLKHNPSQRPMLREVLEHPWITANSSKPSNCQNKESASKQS
# Aurora kinase B [2] = target: T2, Aurora kinase B (Homo sapiens, UniProt Q96GD4); assay: Inhibition of recombinant Aurora B (unknown origin) using TAMRA-PKAtide as substrate after 1 hr by fluorescence polarization assay
# T2 sequence (Q96GD4 whole entry): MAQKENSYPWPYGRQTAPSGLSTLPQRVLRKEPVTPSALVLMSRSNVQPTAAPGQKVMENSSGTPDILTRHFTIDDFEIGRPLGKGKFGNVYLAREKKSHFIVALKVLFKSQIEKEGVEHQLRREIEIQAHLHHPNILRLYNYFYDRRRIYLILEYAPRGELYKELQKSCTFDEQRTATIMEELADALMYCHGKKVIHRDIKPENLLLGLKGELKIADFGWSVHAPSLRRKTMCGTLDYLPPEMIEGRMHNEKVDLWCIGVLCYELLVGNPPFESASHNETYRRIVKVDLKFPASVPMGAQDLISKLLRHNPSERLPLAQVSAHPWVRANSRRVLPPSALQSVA
# HCT-116 [3] = assay: Induction of apoptosis in human HCT116 cells at 100 nM after 72 hrs by Annexin V-FITC staining-based flow cytometric analysis; type: functional, cell-based
# HCT-116 [4] = assay: Inhibition of cytokinesis in human HCT116 cells at 100 nM after 24 hrs by propidium iodide/RNase staining-based flow cytometric analysis; type: functional, cell-based
# HCT-116 [5] = assay: Induction of apoptosis in human HCT116 cells at 1 uM after 72 hrs by Annexin V-FITC/propidium iodide staining-based flow cytometric analysis; type: functional, cell-based
# HCT-116 [6] = assay: Inhibition of cytokinesis in human HCT116 cells at 1 uM after 24 hrs by propidium iodide/RNase staining-based flow cytometric analysis; type: functional, cell-based
# [7] = Solubility of the compound in phosphate buffer of pH 7.4 after 24 hrs by RP-HPLC analysis; type: physicochemical; settings: phosphate buffer, pH 7.4
# [8] = Solubility of the compound in phosphate buffer of pH 2 after 24 hrs by RP-HPLC analysis; type: physicochemical
# Aurora kinase B [9] = target: T2, Aurora kinase B; assay: Inhibition of Aurora B phosphorylation at Thr232 residue in human HCT116 cells over 100 nM after 3 hrs by Western blot method; type: cell-based
# [10] = target: Tyrosine-protein kinase receptor UFO (Homo sapiens) (UniProt P30530); assay: Inhibition of AXL (unknown origin) at 1 uM
# Chain of Tyrosine-protein kinase receptor UFO (Homo sapiens) (P30530 whole entry): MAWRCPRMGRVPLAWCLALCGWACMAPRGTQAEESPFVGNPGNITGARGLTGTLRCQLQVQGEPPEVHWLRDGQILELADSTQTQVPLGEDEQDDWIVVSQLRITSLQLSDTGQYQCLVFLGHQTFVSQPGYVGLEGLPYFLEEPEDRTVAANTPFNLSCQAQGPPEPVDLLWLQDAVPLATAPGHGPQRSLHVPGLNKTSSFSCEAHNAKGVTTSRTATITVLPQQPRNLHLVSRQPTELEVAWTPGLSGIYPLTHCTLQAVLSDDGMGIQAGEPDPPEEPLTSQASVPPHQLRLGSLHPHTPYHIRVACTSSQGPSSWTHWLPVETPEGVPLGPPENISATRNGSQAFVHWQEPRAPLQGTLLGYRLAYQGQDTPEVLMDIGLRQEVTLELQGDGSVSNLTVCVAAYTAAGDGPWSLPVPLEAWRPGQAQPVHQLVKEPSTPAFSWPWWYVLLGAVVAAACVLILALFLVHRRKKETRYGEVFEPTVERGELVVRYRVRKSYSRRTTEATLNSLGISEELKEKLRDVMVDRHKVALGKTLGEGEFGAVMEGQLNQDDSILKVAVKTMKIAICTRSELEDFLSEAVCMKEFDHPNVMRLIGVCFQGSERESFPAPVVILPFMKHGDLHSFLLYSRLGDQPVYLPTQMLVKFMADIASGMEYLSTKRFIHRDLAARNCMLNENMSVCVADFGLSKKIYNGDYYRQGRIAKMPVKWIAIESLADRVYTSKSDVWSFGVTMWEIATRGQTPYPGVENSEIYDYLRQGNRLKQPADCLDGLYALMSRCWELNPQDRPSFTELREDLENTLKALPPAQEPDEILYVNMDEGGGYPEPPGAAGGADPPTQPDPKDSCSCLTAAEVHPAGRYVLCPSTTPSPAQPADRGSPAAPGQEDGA
# [11] = target: Vascular endothelial growth factor receptor 2 (Homo sapiens) (UniProt P35968); assay: Inhibition of VEGFR2 (unknown origin) at 1 uM
# [12] = target: Proto-oncogene tyrosine-protein kinase Src (Homo sapiens) (UniProt P12931); assay: Inhibition of c-Src (unknown origin) at 1 uM
# [13] = target: Tyrosine-protein kinase ABL1 (Homo sapiens) (UniProt P00519); assay: Inhibition of ABL (unknown origin) at 1 uM
# [14] = target: Tyrosine-protein kinase JAK3 (Homo sapiens) (UniProt P52333); assay: Inhibition of JAK3 (unknown origin) at 1 uM
# [15] = target: Proto-oncogene tyrosine-protein kinase receptor Ret (Homo sapiens) (UniProt P07949); assay: Inhibition of RET (unknown origin) at 1 uM
# [16] = target: Serine/threonine-protein kinase PAK 4 (Homo sapiens) (UniProt O96013); assay: Inhibition of PAK4 (unknown origin) at 1 uM
# [17] = target: High affinity nerve growth factor receptor (Homo sapiens) (UniProt P04629); assay: Inhibition of TrkA (unknown origin) at 1 uM
# Chain of High affinity nerve growth factor receptor (Homo sapiens) (P04629 33-796 limits assumed): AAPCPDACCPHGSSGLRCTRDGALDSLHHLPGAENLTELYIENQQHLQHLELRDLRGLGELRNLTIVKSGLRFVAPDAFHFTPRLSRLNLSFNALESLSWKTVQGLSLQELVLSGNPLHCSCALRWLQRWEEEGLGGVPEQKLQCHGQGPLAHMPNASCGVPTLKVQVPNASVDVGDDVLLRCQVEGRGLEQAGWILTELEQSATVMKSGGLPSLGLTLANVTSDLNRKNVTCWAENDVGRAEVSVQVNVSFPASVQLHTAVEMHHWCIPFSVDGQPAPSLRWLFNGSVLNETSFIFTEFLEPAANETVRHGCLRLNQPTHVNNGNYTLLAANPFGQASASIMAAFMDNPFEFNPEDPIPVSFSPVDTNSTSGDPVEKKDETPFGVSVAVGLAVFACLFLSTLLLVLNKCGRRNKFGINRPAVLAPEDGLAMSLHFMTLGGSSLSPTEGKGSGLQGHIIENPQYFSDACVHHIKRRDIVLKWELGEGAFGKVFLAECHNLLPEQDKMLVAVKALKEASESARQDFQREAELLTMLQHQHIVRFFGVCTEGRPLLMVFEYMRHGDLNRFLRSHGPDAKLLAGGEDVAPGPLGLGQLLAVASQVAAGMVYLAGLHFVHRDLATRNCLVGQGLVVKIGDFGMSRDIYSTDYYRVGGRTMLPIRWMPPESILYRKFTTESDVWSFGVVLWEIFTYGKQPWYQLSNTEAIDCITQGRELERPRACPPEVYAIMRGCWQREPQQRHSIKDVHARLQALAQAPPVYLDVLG
# [18] = target: Platelet-derived growth factor receptor beta (Homo sapiens) (UniProt P09619); assay: Inhibition of PDGFRbeta (unknown origin) at 1 uM
# [19] = target: Epithelial discoidin domain-containing receptor 1 (Homo sapiens) (UniProt Q08345); assay: Inhibition of DDR1 (unknown origin) at 1 uM
# Chain of Epithelial discoidin domain-containing receptor 1 (Homo sapiens) (Q08345 whole entry, the tested form may be a part): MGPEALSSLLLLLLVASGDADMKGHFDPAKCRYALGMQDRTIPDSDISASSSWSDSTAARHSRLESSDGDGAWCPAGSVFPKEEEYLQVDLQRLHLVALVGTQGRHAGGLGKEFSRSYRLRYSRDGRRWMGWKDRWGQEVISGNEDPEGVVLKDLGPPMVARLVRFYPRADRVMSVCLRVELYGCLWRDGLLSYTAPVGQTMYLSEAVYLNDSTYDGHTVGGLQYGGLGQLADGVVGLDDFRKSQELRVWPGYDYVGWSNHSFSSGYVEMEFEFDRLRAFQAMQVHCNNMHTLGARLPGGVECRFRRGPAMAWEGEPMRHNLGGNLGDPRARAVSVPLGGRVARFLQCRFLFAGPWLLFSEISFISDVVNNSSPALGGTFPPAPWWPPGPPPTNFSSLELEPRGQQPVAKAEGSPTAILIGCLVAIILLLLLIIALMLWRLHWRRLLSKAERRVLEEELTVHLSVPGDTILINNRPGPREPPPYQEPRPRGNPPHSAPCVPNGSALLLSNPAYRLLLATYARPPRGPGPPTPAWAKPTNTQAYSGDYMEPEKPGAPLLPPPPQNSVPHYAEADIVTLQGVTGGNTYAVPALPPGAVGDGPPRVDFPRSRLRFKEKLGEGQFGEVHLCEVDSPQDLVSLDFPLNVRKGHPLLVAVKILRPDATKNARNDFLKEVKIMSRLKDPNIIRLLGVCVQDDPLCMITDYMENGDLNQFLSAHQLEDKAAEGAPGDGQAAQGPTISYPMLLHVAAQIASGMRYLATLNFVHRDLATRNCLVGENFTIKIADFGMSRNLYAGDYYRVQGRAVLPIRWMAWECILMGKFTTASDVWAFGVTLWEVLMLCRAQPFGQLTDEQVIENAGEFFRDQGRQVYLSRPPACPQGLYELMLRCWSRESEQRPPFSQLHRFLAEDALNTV
# [20] = target: Fibroblast growth factor receptor 3 (Homo sapiens) (UniProt P22607); assay: Inhibition of FGFR3 (unknown origin) at 1 uM
# Chain of Fibroblast growth factor receptor 3 (Homo sapiens) (P22607 23-806 limits assumed): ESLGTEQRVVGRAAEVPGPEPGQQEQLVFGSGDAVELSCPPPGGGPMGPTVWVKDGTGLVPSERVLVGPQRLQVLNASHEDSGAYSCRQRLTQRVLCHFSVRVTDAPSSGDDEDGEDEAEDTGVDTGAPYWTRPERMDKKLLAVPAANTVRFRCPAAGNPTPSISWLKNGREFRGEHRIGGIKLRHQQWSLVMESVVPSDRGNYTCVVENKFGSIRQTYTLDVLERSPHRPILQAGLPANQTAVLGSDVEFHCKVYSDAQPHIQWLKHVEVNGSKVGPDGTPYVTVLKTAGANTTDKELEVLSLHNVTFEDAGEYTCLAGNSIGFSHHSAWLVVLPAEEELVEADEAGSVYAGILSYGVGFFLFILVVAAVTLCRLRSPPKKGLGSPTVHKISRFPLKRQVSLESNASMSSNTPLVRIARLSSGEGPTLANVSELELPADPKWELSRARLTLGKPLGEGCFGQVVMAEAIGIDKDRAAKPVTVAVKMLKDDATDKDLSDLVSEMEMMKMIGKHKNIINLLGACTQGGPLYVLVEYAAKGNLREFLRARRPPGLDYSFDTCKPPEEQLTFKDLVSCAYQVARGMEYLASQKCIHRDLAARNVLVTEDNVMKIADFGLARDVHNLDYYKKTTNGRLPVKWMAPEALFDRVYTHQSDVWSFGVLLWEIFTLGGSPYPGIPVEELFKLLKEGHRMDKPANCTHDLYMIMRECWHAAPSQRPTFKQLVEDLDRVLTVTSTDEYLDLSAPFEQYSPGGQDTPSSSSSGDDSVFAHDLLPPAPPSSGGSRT
# [21] = target: Mast/stem cell growth factor receptor Kit (Homo sapiens) (UniProt P10721); assay: Inhibition of c-KIT (unknown origin) at 1 uM
# [22] = target: Serine/threonine-protein kinase Chk1 (Homo sapiens) (UniProt O14757); assay: Inhibition of CHK1 (unknown origin) at 1 uM
# [23] = target: Receptor-type tyrosine-protein kinase FLT3 (Homo sapiens) (UniProt P36888); assay: Inhibition of FLT3 (unknown origin) at 1 uM
# [24] = target: Serine/threonine-protein kinase B-raf (Homo sapiens) (UniProt P15056); assay: Inhibition of BRAF (unknown origin) at 1 uM
# [25] = target: Hepatocyte growth factor receptor (Homo sapiens) (UniProt P08581); assay: Inhibition of c-MET (unknown origin) at 1 uM
# [26] = target: Cyclin-dependent kinase 4/cyclin D1 (Homo sapiens) (UniProt P11802+P24385); assay: Inhibition of CDK4/Cyclin D1 (unknown origin) at 1 uM; type: protein-complex assay
# [27] = target: Angiopoietin-1 receptor (Homo sapiens) (UniProt Q02763); assay: Inhibition of TIE2 (unknown origin) at 1 uM
# [28] = target: Serine/threonine-protein kinase pim-1 (Homo sapiens) (UniProt P11309); assay: Inhibition of PIM1 (unknown origin) at 1 uM
# Chain of Serine/threonine-protein kinase pim-1 (Homo sapiens) (P11309 whole entry, looked up): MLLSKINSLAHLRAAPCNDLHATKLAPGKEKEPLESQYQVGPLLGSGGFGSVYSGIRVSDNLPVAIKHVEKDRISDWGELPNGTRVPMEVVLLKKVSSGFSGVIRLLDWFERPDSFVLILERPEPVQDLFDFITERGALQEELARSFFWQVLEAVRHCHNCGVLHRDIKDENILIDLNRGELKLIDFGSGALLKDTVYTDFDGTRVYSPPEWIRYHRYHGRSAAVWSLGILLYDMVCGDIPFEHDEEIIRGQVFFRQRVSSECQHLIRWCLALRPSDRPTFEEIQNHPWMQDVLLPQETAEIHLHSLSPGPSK
# [29] = target: CDK2/Cyclin A2 (Homo sapiens) (UniProt P24941+P20248); assay: Inhibition of CDK2/cyclin A (unknown origin) at 1 uM; type: protein-complex assay
# [30] = target: Insulin receptor (Homo sapiens) (UniProt P06213); assay: Inhibition of INSR (unknown origin) at 1 uM
# [31] = target: Serine/threonine-protein kinase PAK 1 (Homo sapiens) (UniProt Q13153); assay: Inhibition of PAK1 (unknown origin) at 1 uM
# Chain of Serine/threonine-protein kinase PAK 1 (Homo sapiens) (Q13153 whole entry): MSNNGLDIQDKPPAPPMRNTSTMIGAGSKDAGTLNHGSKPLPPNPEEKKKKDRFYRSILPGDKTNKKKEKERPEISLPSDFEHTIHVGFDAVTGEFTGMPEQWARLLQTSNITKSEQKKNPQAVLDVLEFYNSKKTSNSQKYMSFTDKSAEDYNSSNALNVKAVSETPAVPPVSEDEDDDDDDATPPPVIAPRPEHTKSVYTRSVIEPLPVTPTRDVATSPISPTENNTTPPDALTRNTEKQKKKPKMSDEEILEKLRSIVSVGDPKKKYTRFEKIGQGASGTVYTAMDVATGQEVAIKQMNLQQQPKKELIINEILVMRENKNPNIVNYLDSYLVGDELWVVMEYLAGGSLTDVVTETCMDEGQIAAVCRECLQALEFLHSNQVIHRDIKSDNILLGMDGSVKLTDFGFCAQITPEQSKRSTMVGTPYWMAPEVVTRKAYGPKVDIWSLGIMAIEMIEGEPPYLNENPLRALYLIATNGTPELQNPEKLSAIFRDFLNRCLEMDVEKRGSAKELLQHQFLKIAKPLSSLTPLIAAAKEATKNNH
# [32] = target: Protein kinase C alpha type (Homo sapiens) (UniProt P17252); assay: Inhibition of PKCalpha (unknown origin) at 1 uM
# [33] = target: Tyrosine-protein kinase CSK (Homo sapiens) (UniProt P41240); assay: Inhibition of CSK (unknown origin) at 1 uM
# [34] = target: Tyrosine-protein kinase SYK (Homo sapiens) (UniProt P43405); assay: Inhibition of SYK (unknown origin) at 1 uM
# [35] = target: Inhibitor of nuclear factor kappa-B kinase subunit beta (Homo sapiens) (UniProt O14920); assay: Inhibition of IKKbeta (unknown origin) at 1 uM
# [36] = target: Interleukin-1 receptor-associated kinase 4 (Homo sapiens) (UniProt Q9NWZ3); assay: Inhibition of IRAK4 (unknown origin) at 1 uM
# [37] = target: Death-associated protein kinase 3 (Homo sapiens) (UniProt O43293); assay: Inhibition of ZIPK (unknown origin) at 1 uM
# Chain of Death-associated protein kinase 3 (Homo sapiens) (O43293 whole entry, looked up): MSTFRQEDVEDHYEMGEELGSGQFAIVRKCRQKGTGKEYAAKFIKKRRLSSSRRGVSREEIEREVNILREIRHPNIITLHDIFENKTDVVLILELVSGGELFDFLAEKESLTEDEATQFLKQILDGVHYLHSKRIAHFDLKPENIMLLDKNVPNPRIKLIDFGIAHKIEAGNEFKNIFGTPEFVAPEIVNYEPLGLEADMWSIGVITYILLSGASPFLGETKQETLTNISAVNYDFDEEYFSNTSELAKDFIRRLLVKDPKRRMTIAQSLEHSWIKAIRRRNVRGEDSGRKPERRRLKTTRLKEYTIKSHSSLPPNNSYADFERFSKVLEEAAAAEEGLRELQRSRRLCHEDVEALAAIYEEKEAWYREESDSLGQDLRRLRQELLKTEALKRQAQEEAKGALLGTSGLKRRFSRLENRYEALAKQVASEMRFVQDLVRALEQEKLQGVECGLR
# [38] = target: Mitogen-activated protein kinase 3 (Homo sapiens) (UniProt P27361); assay: Inhibition of ERK1 (unknown origin) at 1 uM
# [39] = target: Rho-associated protein kinase 2 (Homo sapiens) (UniProt O75116); assay: Inhibition of ROCK2 (unknown origin) at 1 uM
# [40] = target: Serine/threonine-protein kinase mTOR (Homo sapiens) (UniProt P42345); assay: Inhibition of mTOR (unknown origin) at 1 uM
structure (smiles),measurement,setting,value
CNC(=O)Nc1sc2c(C(C)C)cc(NS(=O)(=O)c3cccc(C)c3)cc2c1C(N)=O,IC50,HCT-116 [1],470 nM
same,IC50,HCT-15,1680 nM
same,IC50,Aurora kinase A,95 nM
same,IC50,Aurora kinase B [2],46 nM
same,Activity,HCT-116 [3],Active
same,Cytokinesis inhibition (active/inactive call),HCT-116 [4],Active
same,Activity,HCT-116 [5],Active
same,Cytokinesis inhibition (active/inactive call),HCT-116 [6],Active
same,solubility at 24 h,[7],3.6 µM
same,solubility at 24 h,[8],2.6 µM
CNC(=O)Nc1sc2c(C(C)C)cc(NS(=O)(=O)c3ccccc3)cc2c1C(N)=O,IC50,HCT-116 [1],310 nM
same,IC50,HCT-15,890 nM
same,IC50,Aurora kinase A,37 nM
same,IC50,Aurora kinase B [2],35 nM
same,Activity,HCT-116 [3],Active
same,Cytokinesis inhibition (active/inactive call),HCT-116 [4],Active
same,Activity,HCT-116 [5],Active
same,Cytokinesis inhibition (active/inactive call),HCT-116 [6],Active
same,solubility at 24 h,[7],1.7 µM
same,solubility at 24 h,[8],1.3 µM
CNC(=O)Nc1sc2c(C(C)C)cc(NS(=O)(=O)N(C)C)cc2c1C(N)=O,IC50,HCT-116 [1],300 nM
same,IC50,HCT-15,1600 nM
same,IC50,Aurora kinase A,9 nM
same,IC50,Aurora kinase B [2],23 nM
same,Activity,HCT-116 [3],inactive
same,Cytokinesis inhibition (active/inactive call),HCT-116 [4],Active
same,Activity,HCT-116 [5],inactive
same,Cytokinesis inhibition (active/inactive call),HCT-116 [6],Active
same,inhibition,Aurora kinase B [9],Active
same,solubility at 24 h,[7],13.1 µM
same,solubility at 24 h,[8],8 µM
same,inhibition,[10],37.2%
same,inhibition,[11],68.2%
same,inhibition,[12],94.4%
same,inhibition,[13],88.8%
same,inhibition,[14],54.6%
same,inhibition,[15],97.2%
same,inhibition,[16],11.2%
same,inhibition,[17],46.9%
same,inhibition,[18],61.3%
same,inhibition,[19],75.9%
same,inhibition,[20],14.4%
same,inhibition,[21],28.9%
same,inhibition,[22],16.4%
same,inhibition,[23],46.6%
same,inhibition,[24],-0.3%
same,inhibition,[25],2.76%
same,inhibition,[26],27%
same,inhibition,[27],0.75%
same,inhibition,[28],41.6%
same,inhibition,[29],22.8%
same,inhibition,[30],3%
same,inhibition,[31],5.28%
same,inhibition,[32],17.9%
same,inhibition,[33],19.5%
same,inhibition,[34],51.1%
same,inhibition,[35],30.7%
same,inhibition,[36],8.14%
same,inhibition,[37],39.6%
same,inhibition,[38],17.6%
same,inhibition,[39],15.7%
same,inhibition,[40],3.66%
O=C(O)c1ccc(Nc2ncc3c(n2)-c2ccc(Cl)cc2C(c2c(F)cccc2F)=NC3)cc1 [MLN-8054],IC50,HCT-116 [1],850 nM
same,Activity,HCT-116 [3],inactive
same,Activity,HCT-116 [5],inactive
same,inhibition,Aurora kinase B [9],Active
same,solubility at 24 h,[7],98.2 µM
same,solubility at 24 h,[8],5.8 µM
CNC(=O)Nc1sc2c(C(C)C)cc(NS(=O)(=O)c3ccn(C)n3)cc2c1C(N)=O,IC50,HCT-116 [1],560 nM
same,IC50,HCT-15,6130 nM
same,IC50,Aurora kinase A,5 nM
same,IC50,Aurora kinase B [2],17 nM
same,Activity,HCT-116 [3],Active
same,Cytokinesis inhibition (active/inactive call),HCT-116 [4],Active
same,Activity,HCT-116 [5],Active
same,Cytokinesis inhibition (active/inactive call),HCT-116 [6],Active
same,solubility at 24 h,[7],6.2 µM
same,solubility at 24 h,[8],4.2 µM
CCS(=O)(=O)Nc1cc(C(C)C)c2sc(NC(=O)NC)c(C(N)=O)c2c1,IC50,HCT-116 [1],600 nM
same,IC50,HCT-15,4980 nM
same,IC50,Aurora kinase A,24 nM
same,IC50,Aurora kinase B [2],38 nM
same,Activity,HCT-116 [3],inactive
same,Cytokinesis inhibition (active/inactive call),HCT-116 [4],Active
same,Activity,HCT-116 [5],inactive
same,Cytokinesis inhibition (active/inactive call),HCT-116 [6],Active
same,solubility at 24 h,[7],13.6 µM
same,solubility at 24 h,[8],11.4 µM
CNC(=O)Nc1sc2c(C(C)C)cc(NS(=O)(=O)c3cc(C)cs3)cc2c1C(N)=O,IC50,HCT-116 [1],340 nM
same,IC50,HCT-15,1680 nM
same,IC50,Aurora kinase A,80 nM
same,IC50,Aurora kinase B [2],48 nM
same,Activity,HCT-116 [3],Active
same,Cytokinesis inhibition (active/inactive call),HCT-116 [4],Active
same,Activity,HCT-116 [5],Active
same,Cytokinesis inhibition (active/inactive call),HCT-116 [6],Active
same,solubility at 24 h,[7],1.4 µM
same,solubility at 24 h,[8],1.6 µM
CCCNS(=O)(=O)Nc1cc(C(C)C)c2sc(NC(=O)NC)c(C(N)=O)c2c1,IC50,HCT-116 [1],410 nM
same,IC50,HCT-15,4710 nM
same,IC50,Aurora kinase A,21 nM
same,IC50,Aurora kinase B [2],11 nM
same,Activity,HCT-116 [3],inactive
same,Cytokinesis inhibition (active/inactive call),HCT-116 [4],Active
same,Activity,HCT-116 [5],inactive
same,Cytokinesis inhibition (active/inactive call),HCT-116 [6],Active
CC(C)c1cc(NS(=O)(=O)c2ccccc2)cc2c(C(N)=O)c(NC(=O)C3CC3)sc12,IC50,HCT-116 [1],1390 nM
same,IC50,Aurora kinase A,827 nM
same,IC50,Aurora kinase B [2],417 nM
